Values of other authors in patent US7747395B2, “Method of inhibitor design and identification using a 3-D structure of human peptide deformylase” (Sloan-Kettering Institute for Cancer Research, priority 2007, dated 2010).

System: drug resistant bacterial strains
Details: cited from earlier work

CC(C)(C)[C@H](NC(=O)[C@H](CC1CCCC1)CN(O)C=O)C(=O)N1CCN(Cc2ccc3c(c2)OCO3)CC1 [BB-83698]
antibacterial activity in vitro: broad spectrum activity in vitro against drug resistant bacterial strains
